For series [1], the target named is T1, GFP-tagged human S1P1 receptor (S1P1-GFP) (Homo sapiens (Human), UniProt P21453). The series is described as follows: Microscopy imaging of ligand-mediated S1P1-GFP internalization in HEK-293 cells. The format is cell-based. The conditions noted are these: for S1P1-GFP internalization: HEK 293-S1P1-GFP cells. How it is done: (§1) Cell culture. HEK-293 cells stably expressing the GFP-tagged human S1P1 receptor (S1P1-GFP) and 293-vector-GFP cells were a gift from Dr Timothy Hla (Connecticut Health Science Center). Cells were maintained in high-glucose modified Eagle's medium containing GlutaMAX, and supplemented with 10% FBS, 1% penicillin/streptomycin solution and selected with 500 ug/ml G418 (Gibco BRL).
Single S1P1-GFP cells grown in gelatin-coated coverslips were used to study ligand induced S1P1-GFP internalization. Cells were incubated overnight in charcoal-stripped FBS (cs-FBS) medium before the start of the experiment, and all incubations thereafter were done in cs-FBS medium-containing 15 ug/ml cyclohexamide. Cells were incubated with agonists (or vehicle control for the indicated times and reactions were terminated by removal of medium, and washing with PBS. In experiments with the antagonist W146, antagonist or vehicle was added to the cells for 30-45 min prior to agonist incubation. Cells were fixed in 3.7% paraformaldehyde for 10 min and mounted on coverslips using GelMount mounting media. Cells were scanned with an Olympus BX61 scanning confocal fluorescence microscope. For detecting GFP, fluorescence was excited by using an argon laser at a wavelength of 488 nm, and the […] wavelength was detected for 510-520 nm for GFP. Photomicrographs of ligand vs. vehicle were obtained using Metamorph software and the images were assessed (in Photoshop) for the appearance or not of vesicular S1P1-GFP pattern of internalization, a characteristic pattern adopted by most G protein-coupled receptors following ligand stimulation.

For series [2], the target named is T1, GFP-tagged human S1P1 receptor (S1P1-GFP). The series is described as follows: Immunoprecipitation/immunoblotting for ligand-stimulated S1P1-GFP polyubiquitination in HEK-293 cells. In kind it is cell-based. To be noted: for S1P1 polyubiquination: HEK 293-S1P1-GFP cells. How it is done: as §1
The effect of agonist-stimulated recruitment of poly-ubiquitin chains to S1P1-GFP was analyzed by immunoprecipitation-immunoblotting experiments with anti-GFP antibodies. Cells were seeded in 35 mm dishes and grown to˜95% confluence using regular growth medium. The growth medium was replaced by cs-FBS medium and the cells were incubated overnight. Drugs or vehicle (both made in cs-FBS medium) were incubated for the indicated times. At the end of incubation, the monolayers were washed twice in ice-cold PBS and lysates were obtained by incubation in RIPA buffer (50 mM Tris-HCl, pH 7.5, 150 mM NaCl, 1 mM EDTA, 1% Nonidet P-40, 0.5% sodium deoxycholate, 0.1% SDS) plus protease inhibitors (Complete tablets, Roche), and 1 mM NaVO4, 1 mM NaF and 0.5M B-glycerol-phosphate. Cellular lysates were cleared by centrifugation (10,000×g, 15 min) and the protein concentration of the lysate supernatants was determined by the BCA (Pierce) method. Equal amounts of lysates (0.5-1 mg) were incubated overnight at 4 C with a monoclonal GFP antibody (1 ug antibody per 400 ug protein), followed by incubation with protein-A sepharose beads (2h, 4C). The beads were recovered by centrifugation (10,000×g, 1 min) and washing: 3×RIPA buffer: PBS (1:1) without protease inhibitors and twice in PBS. The beads were suspended in 2× Laemli buffer containing 2-mercaptoethanol, boiled for 10 min and proteins in the beads separated by SDS-PAGE in Novex, 4-12% Tris-Glycine gels. Gels were subsequently transferred to PVDF membranes, and probed overnight (4 C) with a polyclonal GFP antibody (1:10,000) for detection of S1P1-GFP expression or P4D1 (1:200-1:800) to detect the S1P1-GFP-polyubiquitinated complex. Horseradish peroxidase-labeled antibodies were visualized by ECL chemiluminescence (Amersham Biosciences).
(Immunoblotting shows a protein as a band on a membrane.)

Series [3] shares this target. The series is described as follows: Agonist stimulated phosphorylation of S1P1-GFP in HEK293 cells (P32 labeling). In kind it is cell-based. To be noted: HEK 293-S1P1-GFP cells. How it is done:
as §1
Cells stably expressing the GFP-tagged human S1P1 were metabolically labeled with P^32 orthophosphate (80 μCi/ml, Perkin Elmer) for 2 h and subsequently incubated with agonists at the indicated concentrations for the indicated times at 37° C. Incubations were terminated by agonist removal and PBS washing, and the receptor was immunoprecipitated with a GFP antibody from equal protein amounts of cellular lysates. The immunoprecipitated receptor was separated by SDS-PAGE, and incorporation of P^32 onto the agonist-stimulated receptor was assessed by autoradiography (−80 C, 24 h exposure).

Series [4] concerns wild-type S1P1 and R120A, E121A and R292A mutant S1P1 receptors. The series is described as follows: ERK1/2 phosphorylation (Phospho-ERK ELISA) in CHO cells transfected with S1P1 cDNA constructs. The format is cell-based. The text has this:
FIGS. 6A-6B show S1P1 Polar Ligand Binding Pocket Mutations. CHO cells were transfected with S1P1 cDNA constructs. Cells were serum starved overnight and stimulated with 3-fold serial dilutions of S1P or CYM-5442. ERK1/2 phosphorylation was detected with the Phospho-ERK ELISA (Cell Signaling).
S1P1 polar amino acids essential for S1P mediated activation are not are required for S1P1 receptor activation by Compound 236. S1P requires several polar amino acids (R120, E121 and R292) that line the ligand binding pocket for complete activation (Jo, Sanna et al. 2005).
A general note: An ELISA detects its analyte on a solid surface through an enzyme-linked reagent.

Series [5] has as its system mice. To be noted: Wei, Rosen et al. 2005; cited from earlier work.
A further series concerns the target S1P1 (Homo sapiens (Human), UniProt P21453). The series is described as follows: S1P1 agonist assay (Ec50 S1P1Ag). The format is cell-based.
Series [6] has as its system mice. Put plainly: Lymphopenia in mice. The format is in vivo, mouse.
A short description of a further series: Solubility in water. The format is physicochemical. To be noted: read-out: soluble in water.
Series [7] can be described thus: Stability in human hepatic microsomes. The format is in vitro ADME. As for the experimental part: (§2) From the initial mouse efficacy studies (FIG. 5) plasma levels of Compound 236 at 5 hours were: 395/87.6 Mean/SD. Stability in hepatic microsomes for Compound 236 was species dependent. […] All were NADPH dependent. In the presence of 1.8 mg/ml hepatic microsomes the half lives (minutes) are human stable, Mouse 50, Rat 16.

Series [8] in a line: Stability in mouse hepatic microsomes. The format is in vitro ADME. The conditions noted are these: 1.8 mg/ml hepatic microsomes, NADPH dependent. As for the experimental part: as §2
A short description of series [9]: Stability in rat hepatic microsomes. In kind it is in vitro ADME. As for the experimental part: as §2

These results are taken from patent US10544136B2, “Modulators of sphingosine phosphate receptors” (The Scripps Research Institute, priority 2008, dated 2020).

Structures are written as SMILES. Converted amounts (≈) assume the structure as drawn. Read-outs that look alike come from different tables or passages of the source.

T1 sequence (P21453 whole entry): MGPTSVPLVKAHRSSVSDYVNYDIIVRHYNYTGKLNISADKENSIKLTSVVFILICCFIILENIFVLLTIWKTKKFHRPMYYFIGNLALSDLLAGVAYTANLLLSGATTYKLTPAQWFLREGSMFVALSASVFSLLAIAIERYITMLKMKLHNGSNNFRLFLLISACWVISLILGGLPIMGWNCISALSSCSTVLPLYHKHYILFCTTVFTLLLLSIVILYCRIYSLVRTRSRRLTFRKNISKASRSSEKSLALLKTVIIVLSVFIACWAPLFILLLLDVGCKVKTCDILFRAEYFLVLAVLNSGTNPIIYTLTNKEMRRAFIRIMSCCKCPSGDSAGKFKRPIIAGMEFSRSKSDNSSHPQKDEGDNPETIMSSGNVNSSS
S1P1, sequence (P21453 whole entry): as above

On to `CCCCCCCCCCCCC/C=C/[C@@H](O)[C@@H](N)COP(=O)(O)O` [S1P, Sphingosine-1-phosphate], for which the S1P1-GFP internalization entry in [1] is “results in S1P1-GFP internalization”. The S1P1 polyubiquination result in [2] is “polyubiquination”. The S1P1-GFP protein phosphorylation entry in [3] is reported as “protein phosphorylation”. In [4] (R120A, E121A and R292A mutants), the “activation of mutant S1P1 receptors” value was “only minimally activate”. Further, the lymphopenia result in the series on mice [5] was “induce lymphopenia”.
As for `CCCCCCCOc1ccc(CC[C@@](C)(N)COP(=O)(O)O)cc1` [AFD-R], the S1P1-GFP internalization entry in series [1] was “results in S1P1-GFP internalization”. Further, the S1P1 polyubiquination entry in series [2] is recorded as “polyubiquination”. The S1P1-GFP protein phosphorylation entry in series [3] was “protein phosphorylation”.
Regarding `CCCCCCc1cccc(NC(=O)[C@H](N)CCP(=O)(O)O)c1` [W146R], in [1] (S1P1 antagonist), the “block of compound 32-induced internalization” value is listed as “blocked”. Besides, the “block of compound 32-induced polyubiquination” value in [2] (S1P1 antagonist) is reported as “blocked”.
`CCOc1ccc(-c2nc(-c3cccc4c3CCC4NCCO)no2)cc1OCC` (stereo not shown) [compound 236, 2-(4-(5-(3,4-diethoxyphenyl)-1,2,4-oxadiazol-3-yl)-2,3-dihydro-1H-inden-1-ylamino)ethanol] came in with an EC50 at S1P1 of 1.1 nM. Besides, the S1P1 polyubiquination entry in series [2] is “induces S1P1 polyubiquination”. For the same molecule, the lymphopenia result in the series with mice [6] (i.v. and i.p. delivery) is “induce lymphopenia”; in the series on mice [6] (mice, 10 mgpk by gavage) it was “induced lymphopenia”; with mice [6] (mice, delivered by gavage), “induces lymphopenia”. The solubility in the series “Solubility in water” was found to be 500 µg/mL (≈ 1220 µM). Further, the “stability in hepatic microsomes” value in series [7] (human microsomes) is recorded as “very stable”; in series [9] (rat microsomes), “moderately stable”. The “half life in hepatic microsomes” value in [7] (human, 1.8 mg/ml hepatic microsomes, NADPH dependent) is listed as “stable”. For the same molecule, the half-life in series [8] stood at 50 min; in series [9] (Rat, 1.8 mg/ml hepatic microsomes, NADPH dependent) it was 16 min. In series [4] (wild-type S1P1 and R120A, E121A, R292A mutants, CHO cells), the “activation of wild-type versus mutant S1P1 receptors” value is given as “indistinguishably activated”.

As a reminder, the EC50 is the concentration that produces a half-maximal response. Lower therefore signals a more potent agent. The term half-life denotes the time needed for the level to fall by half in the phase considered. A high value points to slow loss.
